Measurements as given in publication PMC6219549, “Emergence of a cholecystokinin/sulfakinin signalling system in Lophotrochozoa” (Scientific Reports, 2018).
Entries after “also recorded” stand apart in the source; their conditions may differ. Read-outs that look alike come from different tables or passages of the source. Where a SMILES comes first, the peptide text is derived from it. Where no end group is shown, it is not given here. [ ]: non-standard residue; d: D form. sY = N[C@@H](Cc1ccc(OS(=O)(=O)O)cc1)C(=O)O; pGlu = O=C1CC[C@@H](C(=O)O)N1

Legend:
[1] = biological target: T1, Cragi-CCKR1 (Magallana gigas, UniProt A0A345BJM8); assay: Calcium fluorescence (mobilization) assay, Cragi-CCKR1 in HEK293T cells; format: cell-based, Crassostrea gigas; conditions: for EC50: HEK293T transiently transfected with Cragi-CCKR1, Fluo-4 calcium response, 37 °C, read-out: EC50 for receptor activation, Cragi-CCKR1
T1 sequence (A0A345BJM8 1-408): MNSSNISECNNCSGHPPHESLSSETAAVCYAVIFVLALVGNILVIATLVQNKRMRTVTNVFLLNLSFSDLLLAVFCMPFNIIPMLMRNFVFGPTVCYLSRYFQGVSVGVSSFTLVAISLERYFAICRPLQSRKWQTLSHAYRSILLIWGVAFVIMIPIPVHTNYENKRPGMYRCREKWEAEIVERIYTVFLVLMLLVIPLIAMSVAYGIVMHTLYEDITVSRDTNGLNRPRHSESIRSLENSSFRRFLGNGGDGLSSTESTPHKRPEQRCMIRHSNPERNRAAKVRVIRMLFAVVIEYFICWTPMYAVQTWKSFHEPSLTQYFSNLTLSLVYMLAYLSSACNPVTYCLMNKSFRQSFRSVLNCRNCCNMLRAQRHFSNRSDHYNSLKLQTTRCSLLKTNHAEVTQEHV
Excerpt: (§1) The CDS of the Cragi-CCKR genes were amplified by PCR (Pfu DNA polymerase, Promega) using gene-specific sense primers harbouring a Kozak consensus sequence and antisense primers (Supplementary Table 3). Ten nanogram of plasmid DNA (Pal 17.3 vector, Evrogen) from a C. gigas “all developmental stages and adult central nervous system” directional and normalized cDNA library[62] was used as template. The resulting PCR products were directionally cloned into the pcDNA3.1 expression vector (Invitrogen). The correct insertion of the PCR products was confirmed by sequencing. Human Embryonic Kidney (HEK293T) cells were transiently transfected with the Cragi-CCKR/pcDNA3.1 constructs using Fugene HD (Promega) according to the manufacturer’s instructions. As a first step, co-transfection was done with a pcDNA3.1 expression construct for the human Gα16 subunit, a promiscuous G protein that can direct intracellular signalling of GPCRs to the release of calcium via the phospholipase Cβ pathway, regardless of the endogenous G protein coupling of the receptor[63]. To assess receptor activity independent of Gα16, calcium responses were measured in cells expressing only the Cragi-CCKRs. Cells for negative control experiments were transfected with empty pcDNA3.1 and Gα16/pcDNA3.1 constructs.
(§2) Activation of the Cragi-CCKRs by candidate peptide ligands was monitored using a fluorescence-based calcium mobilization assay. Briefly, transfected HEK293T cells were loaded with Fluo-4 Direct (Invitrogen) plus probenecid (qsp 2.5 mM final in the cell) (Molecular Probes) for 1 hour (45 min at 37 °C and 15 min at room temperature). Excitation of the fluorophore was done at 488 nm. The calcium response was measured for 2 min at 525 nm using a FLEXstation 3 (Molecular Devices) at 37 °C. Data were analysed using SoftMax Pro (Molecular Devices). Candidate ligands were first tested at a final concentration of 10^−5 M. Concentration-response measurements of activating ligands were conducted in quadruplicate and for at least three independent experiments. Half maximal effective concentrations (EC50 values) were calculated from concentration-response curves that were constructed using nonlinear regression analysis with a sigmoidal dose-response equation using Prism 5.0 (GraphPad software, USA).

[2] = test system: oyster hindgut; assay: Myotropic bioassay on oyster hindgut; parameters: species or system Crassostrea gigas; conditions: for Duration, Relaxation (R) / Duration, Contraction (C) / Duration, Period (P) / Amplitude (A): mean ± SEM of four experiments, SEM; for Minimal threshold concentration inducing hindgut contraction: isolated oyster hindgut, perfused muscle chamber
Protocol: The myotropic bioassay was performed using oyster's hindgut according to the protocol described earlier for the cuttlefish oviduct. The muscle chamber was perfused at a flow rate of 0.67 mL.min^-1. Increasing concentrations of synthetic peptides (Cragi-CCK1, [[…], [[…], [[…]) were injected in the perfusing flow using a three-way valve to avoid mechanical stress. The flow of the samples into the muscle chamber was traced by adding phenol red.

[3] = biological target: T2, Cragi-CCKR2 (Magallana gigas, UniProt A0A345BJM9); assay: Calcium fluorescence (mobilization) assay, Cragi-CCKR2 in HEK293T cells; format: cell-based, Crassostrea gigas; conditions: for EC50: HEK293T transiently transfected with Cragi-CCKR2, Fluo-4 calcium response, 37 °C, read-out: EC50 for receptor activation, Cragi-CCKR2
T2 sequence (A0A345BJM9 1-406): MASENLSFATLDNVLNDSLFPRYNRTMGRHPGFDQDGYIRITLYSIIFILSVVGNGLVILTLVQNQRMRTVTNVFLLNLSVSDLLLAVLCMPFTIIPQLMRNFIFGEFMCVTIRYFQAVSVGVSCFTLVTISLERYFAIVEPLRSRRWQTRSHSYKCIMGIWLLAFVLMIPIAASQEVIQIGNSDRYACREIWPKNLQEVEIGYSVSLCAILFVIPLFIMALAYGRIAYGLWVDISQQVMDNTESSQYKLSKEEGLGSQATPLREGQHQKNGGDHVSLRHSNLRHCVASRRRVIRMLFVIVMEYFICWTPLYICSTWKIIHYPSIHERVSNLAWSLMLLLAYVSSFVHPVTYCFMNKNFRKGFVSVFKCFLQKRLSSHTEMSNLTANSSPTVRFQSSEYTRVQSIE
Excerpt: as §1, §2

[4] = concentration-response in quadruplicate, at least three independent experiments
[5] = folds more potent than [Y^8S] Cragi-CCK1, calcium assay
[6] = times more potent than non-sulphated Cragi-CCK1, calcium assay
[7] = high concentrations, HEK293T, Fig. 4

CC(C)C[C@H](NC(=O)CNC(=O)[C@H](Cc1ccc(O)cc1)NC(=O)[C@H](CC(=O)O)NC(=O)[C@H](Cc1ccc(O)cc1)NC(=O)[C@H](CC(=O)O)NC(=O)[C@H](Cc1c[nH]c2ccccc12)NC(=O)[C@H](C)NC(=O)CNC(=O)[C@@H]1CCC(=O)N1)C(=O)NCC(=O)NCC(=O)NCC(=O)N[C@@H](CCCNC(=N)N)C(=O)N[C@@H](Cc1ccccc1)C(N)=O [Cragi-CCK1] ([pGlu]GAWDYDYGLGGGRF-NH2)
EC50 [1, 4]: 0.195 ± 0.02 µM
Duration, Relaxation (R) ([2]; Peptide 10^−7M, no peptide 10,48 ± 0,78): 16,03 ± 1,13 min
Duration, Contraction (C) ([2]; Peptide 10^−7M, no peptide 20,18 ± 0,33): 35,23 ± 1,32 min
Duration, Period (P) ([2]; Peptide 10^−7M, no peptide 30,67 ± 0,67): 51,27 ± 0,15 min
Amplitude (A) ([2]; Peptide 10^−7M, no peptide 0,161 ± 0,038): 0,203 ± 0,038 g
Minimal threshold concentration inducing hindgut contraction [2]: 10^−7 M
EC50 [3, 4]: 0.462 ± 0.067 µM

N=C(N)NCCC[C@H](NC(=O)CNC(=O)CNC(=O)CNC(=O)[C@H](Cc1ccc(OS(=O)(=O)O)cc1)NC(=O)[C@H](CC(=O)O)NC(=O)[C@@H](N)Cc1ccccc1)C(=O)N[C@@H](Cc1c[nH]c2ccccc12)C(N)=O [[Y^3S] Cragi-CCK2] (H-FD[sY]GGGRW-NH2)
EC50 ([3]; values given in M): > 100 µM

CC(C)C[C@H](NC(=O)CNC(=O)[C@H](Cc1ccc(OS(=O)(=O)O)cc1)NC(=O)[C@H](CC(=O)O)NC(=O)[C@H](Cc1ccc(OS(=O)(=O)O)cc1)NC(=O)[C@H](CC(=O)O)NC(=O)[C@H](Cc1c[nH]c2ccccc12)NC(=O)[C@H](C)NC(=O)CNC(=O)[C@@H]1CCC(=O)N1)C(=O)NCC(=O)NCC(=O)NCC(=O)N[C@@H](CCCNC(=N)N)C(=O)N[C@@H](Cc1ccccc1)C(N)=O [[Y^6S-Y^8S] Cragi-CCK1] ([pGlu]GAWD[sY]D[sY]GLGGGRF-NH2)
EC50 [1, 4]: 0.0011 ± 0.00025 µM
Potency relative to mono-sulphated [Y^8S] Cragi-CCK1, Cragi-CCKR1 [1, 5]: 2 folds
Duration, Relaxation (R) ([2]; Peptide 10^−9M, no peptide 11,80 ± 1,63): 23,82 ± 1,35 min
Duration, Contraction (C) ([2]; Peptide 10^−9M, no peptide 18,76 ± 1,07): 38,57 ± 3,53 min
Duration, Period (P) ([2]; Peptide 10^−9M, no peptide 30,57 ± 2,22): 62,39 ± 2,50 min
Amplitude (A) ([2]; Peptide 10^−9M, no peptide 0,103 ± 0,006): 0,153 ± 0,016 g
Minimal threshold concentration inducing hindgut contraction [2]: 10^−9 M
EC50 [3, 4]: 0.00198 ± 0.00025 µM
Potency relative to mono-sulphated [Y^8S] Cragi-CCK1, Cragi-CCKR2 [3, 5]: 5 folds

CC(C)C[C@H](NC(=O)CNC(=O)[C@H](Cc1ccc(O)cc1)NC(=O)[C@H](CC(=O)O)NC(=O)[C@H](Cc1ccc(OS(=O)(=O)O)cc1)NC(=O)[C@H](CC(=O)O)NC(=O)[C@H](Cc1c[nH]c2ccccc12)NC(=O)[C@H](C)NC(=O)CNC(=O)[C@@H]1CCC(=O)N1)C(=O)NCC(=O)NCC(=O)NCC(=O)N[C@@H](CCCNC(=N)N)C(=O)N[C@@H](Cc1ccccc1)C(N)=O [[Y^6S] Cragi-CCK1] ([pGlu]GAWD[sY]DYGLGGGRF-NH2)
EC50 [1, 4]: 0.0164 ± 0.0001 µM
Duration, Relaxation (R) ([2]; Peptide 10^−5M, no peptide 11,35 ± 0,85): 11,23 ± 0,60 min
Duration, Contraction (C) ([2]; Peptide 10^−5M, no peptide 20,18 ± 0,98): 21 ± 1,42 min
Duration, Period (P) ([2]; Peptide 10^−5M, no peptide 31,53 ± 1,45): 32,23 ± 1,53 min
Amplitude (A) ([2]; Peptide 10^−5M, no peptide 0,129 ± 0,019): 0,104 ± 0,021 g
Hindgut response (in words) ([2]; concentration up to 10^−5M): No response
Activation of Cragi-CCKR2 (in words) ([3]; doses as high as 10^−5M, calcium assay in HEK293T): inactive; also recorded: No activation

CC(C)C[C@H](NC(=O)CNC(=O)[C@H](Cc1ccc(OS(=O)(=O)O)cc1)NC(=O)[C@H](CC(=O)O)NC(=O)[C@H](Cc1ccc(O)cc1)NC(=O)[C@H](CC(=O)O)NC(=O)[C@H](Cc1c[nH]c2ccccc12)NC(=O)[C@H](C)NC(=O)CNC(=O)[C@@H]1CCC(=O)N1)C(=O)NCC(=O)NCC(=O)NCC(=O)N[C@@H](CCCNC(=N)N)C(=O)N[C@@H](Cc1ccccc1)C(N)=O [[Y^8S] Cragi-CCK1] ([pGlu]GAWDYD[sY]GLGGGRF-NH2)
EC50 [1, 4]: 0.00229 ± 0.00155 µM
Potency relative to non-sulphated counterpart (Cragi-CCK1), Cragi-CCKR1 [1, 6]: 90 times
Duration, Relaxation (R) ([2]; Peptide 10^−10M, no peptide 11,08 ± 2,27): 17,62 ± 5,27 min
Duration, Contraction (C) ([2]; Peptide 10^−10M, no peptide 18,58 ± 1,03): 37,13 ± 3,28 min
Duration, Period (P) ([2]; Peptide 10^−10M, no peptide 29,66 ± 2,22): 54,75 ± 1,97 min
Amplitude (A) ([2]; Peptide 10^−10M, no peptide 0,121 ± 0,025): 0,173 ± 0,023 g
Minimal threshold concentration inducing hindgut contraction [2]: 10^−10 M
EC50 [3, 4]: 0.01 ± 0.0019 µM
Potency relative to non-sulphated counterpart (Cragi-CCK1), Cragi-CCKR2 [3, 6]: 50 times

FDYGGGRW-NH2 [Cragi-CCK2]
EC50 ([1]; values given in M): > 100 µM
EC50 ([3]; values given in M): > 100 µM

FMRF-amide [reference compound]
Hindgut effect (in words) ([2]; concentration of 10^−7M): No effect

GALRF-amide [oyster GALRF-amide unrelated neuropeptide used as negative control, reference compound]
Calcium response of Cragi-CCKR1 to negative control peptide [1, 7]: No response
Calcium response of Cragi-CCKR2 to negative control peptide [3, 7]: No response
